Results from patent publication US11440932B2, “Surfactant compounds-clips for extraction and stabilization in solution of membrane proteins” (CENTRE NATIONAL DE LA RECHERCHE SCIENTIFIQUE, priority 2017, dated 2022).
Residues, ends and D or L forms follow the SMILES beside them. *: point of attachment. Lauroyl = CCCCCCCCCCCC(=O)*

Key:
[1] = target: T1, BmrA (Bacillus subtilis, UniProt O06967); assay: ATPase activity of BmrA after addition of detergents; assay type: biochemical, bacterial; produced in E. coli C41 DE3
T1 construct: His tag; made in house; host or cells: E. coli C41(DE3)
Method: FIG. 7 depicts the effect of the detergents of the invention on the functionality of BmrA (ATPase activity, %). The membrane fraction enriched in BmrA (˜25%) diluted to 2 g/l has the compounds added to it at the concentrations (mM) indicated (panel A, from top to bottom: 3.7e 10.7 mM, 3.7e 8.6 mM, 3.7e 6.4 mM, 3.7e 4.3 mM, 3.7e 2.2 mM, 3.7e 1.1 mM, 3.7d 4 mM, 3.7d 3 mM, 3.7d 2 mM, 3.7d 1 mM, 3.7d 0.8 mM, 3.7d 0.6 mM, 3.7d 0.05 mM, 3.7d 0.03 mM, 3.7d 0.02 mM, 3.7c 13 mM, 3.7c 10.4 mM, 3.7c 10 mM, 3.7b 1.5 mM, 3.7b 0.7 mM, 3.7b 0.5 mM, 2.3gNa2 20.5 mM, 2.3gK2 19.3 mM, 2.3f 21.1 mM, 2.3e 22 mM, 2.3d 23.2 mM, 2.3a 3.2 mM, 1.5a 22 mM, DDM 20 mM, DDM 2 mM, DDM 10 mM, DOM 2 mM, DDM 1 mM, LMNG 10 mM, LMNG 1 mM, LMNG 0.1 mM, LMNG 0.01 mM, FA3 27 mM, FA3 9 mM, FA3 2 mM, FA3 1 mM, TX100 16 mM; panel B from top to bottom: compounds of the invention 5.3d 3.2 mM, 5.3c 3.3 mM, 5.3b 11.7 mM, 5.3b 2.9 mM, 5.3a 3 mM, 4.6c 14.6 mM, 4.6b 15.2 mM, 4.5c 18.6 mM, 4.5b 19.6 mM, 3.9a 8 mM, 3.9a 0.51 mM, 3.9a 0.31 mM, 3.9a 0.11 mM, 3.7l 12.01 mM, 3.7l 6.01 mM, 3.7l 3 mM, 3.7l 1 mM, 3.7k 10 mM, 3.7k 3 mM, 3.7j 3 mM, 3.7j 2 mM, 3.7j 1 mM, 3.7j 0.6 mM, 3.7j 0.03 mM, 3.7j 0.02 mM, 3.7j 1 mM, 3.7i 0.3 mM, 3.7h 3 mM, 3.7h 2 mM, 3.7h 1 mM, 3.7h 0.6 mM, 3.7h 0.58 mM, 3.7h 0.5 mM, 3.7h 0.35 mM, 3.7h 0.1 mM, 3.7h 0.5 mM, 3.7h 0.35 mM, 3.7h 0.1 mM, 3.7h 0.05 mM, 3.7h 0.03 mM, 3.7h 0.02 mM, 3.7g 12.5 mM, 3.7g 9 mM, 3.7g 7.5 mM, 3.7g 5 mM, 3.7g 3 mM, 3.7g 1 mM, 3.7f 3.2 mM, 3.7f 2 mM, 3.7f 1 mM, 3.7f 0.061 mM, 3.7f 0.031 mM, 3.7f 0.015 mM). After incubation for 2 h at 4° C., the ATPase activity is measured. The solutions are subsequently centrifuged for 1 h at 4° C., 100 000×g, and the supernatants deposited on 10% SDS-PAGE (cf. FIG. 8). The gray and black histograms correspond to the concentrations at which BmrA is partially (gray) or entirely (black) extracted, according to these SDS-PAGE. The ATPase activity is in % relative to that of the protein without compound, 0.7 μmol ATP hydrolyzed/min/mg of proteins.
The molecules of the invention which extract BmrA in the previous example were tested at different sub-solubilizing and solubilizing concentrations, to evaluate their impact on the native and functional state of the protein. The latter is monitored by the hydrolysis of ATP which is carried out by the protein during the transport cycle, coupled with translocation of the solute. As reported previously (Matar-Merheb, R. et al. ([11])), the ATPase activity of BmrA is a highly sensitive marker of the state of the protein, the latter being particularly sensitive to the detergents used during the extraction step, where said detergents replace the lipids on contact with the membrane protein.
Procedure. BmrA produced and enriched in the plasma membrane of E. coli C41 DE3 is prepared as described previously (Matar-Merheb, R. et al. ([11])). The membranes are diluted at 2 g/l in a 20 mM Tris-HCl buffer, pH 8.0, 100 mM NaCl, 15% glycerol, with protease inhibitors (Roche) added thereto at an amount of one tablet/100 ml. The mixture (T) is incubated for 2 h at 4° C. and the ATPase activity is measured using the coupled-enzyme system, separating off the vanadate-insensitive activity from the total activity, Centeno, F. et al. Expression of the sarcoplasmic reticulum Ca^2+-ATPase in yeast. FEBS Lett 354, 117-122 (1994) ([25])). The solutions are subsequently centrifuged for 1 h at 4° C. at 100 000×g in order to separate the extracted fraction (supernatant, S) from that which is not extracted (pellet). The supernatants are deposited on 10% SDS-PAGE and stained with Coomassie blue after migration (FIG. 8). DDM, LMNG (Chae, P. S. et al. ([6])), TritonX100 and FA3 (Lee, S. C. et al. (2013) ([9])) are tested as reference detergents. The DDM and LMNG originate from Anatrace, the Triton X100 originates from Sigma-Aldrich and the FA3 from Avanti-Polars.

[2] = target: T1, BmrA; assay: Extraction of BmrA from membranes (SDS-PAGE of supernatant); parameters: species or system bacterial; overexpressed in E. coli C41DE3; conditions: detergent 10 g/l unless indicated otherwise; 2 h at 4° C.
Method: (§1) FIG. 6 depicts the extraction of the membrane proteins BmrA (panels A and C) and AcrB (panels B and D) using commercial detergents and the molecules of the invention (panels A and B, from left to right): SDS, DDM, FC12, TX100, compounds of the invention 1.4, 1.5, 2.3a, 2.3b, 2.3c, 2.3d, 2.3e, 2.3f, 2.3g, 2.3h, 2.3i, 3.7a, 3.7b; panel C: compounds of the invention 3.7c 0.8%, 3.7d 0.16%, 3.7e 0.8%, 3.7f 0.3%, 3.7g 0.4%, 3.7h 0.2%, 3.7i 0.07%, 3.7j 0.09%, 3.7k, 3.7l, 0.25%, 3.9a, 4.5a, 4.5b, 4.5c, 4.5d 0.34%, 4.6a, 4.6b, 4.6c, 4.6d, 5.3a, 5.3b, 5.3c 0.3%, 5.3d 0.3%; panel D: 3.7c, 3.7d, 3.7e, 3.7f, 3.7h, 3.7i 0.1%, 3.7j, 3.7k, 3.7l, 3.9a, 4.5a, 4.5b, 4.5c, 4.5d, 4.6a, 4.6b, 4.6c, 4.6d. The detergents are added at 10 g/l (1%), unless indicated otherwise. The equivalent of 20 μg of proteins of the extracted fraction after centrifugation at 100 000×g for 30 min is deposited on 10% SDS-PAGE, stained with Coomassie blue after migration. BmrA migrates in its monomeric form to the level of the 55 kDa band; AcrB migrates in its monomeric form to the level of the 100 kDa band. SDS=sodium dodecyl sulfate; DDM=β-D-dodecyl maltoside; FC12=foscholine-12; TX100=triton X-100.
(§2) The extraction capacity of the detergents of the series is tested on membranes in which BmrA or AcrB are strongly expressed. The extraction with the clips (molecules of the invention) is compared to that obtained with commercial detergents, used as reference.
(§3) Procedure. BmrA represents 25% of the proteins present in the overexpression system used (E. coli, C41DE3). These membranes are prepared as described previously (Matar-Merheb, R. et al. ([11])). The membranes containing AcrB (approximately 20% of the membrane proteins, same expression system as BmrA) were prepared as described previously (Seeger, M. A. et al. ([21])). The detergents are used at 10 g/l unless indicated otherwise, and the proteins diluted at 2 g/l in a 20 mM Tris-HCl buffer, pH 8.0, 100 mM NaCl, 15% glycerol, with protease inhibitors (Roche) added thereto at an amount of one tablet/100 ml. The mixture (T) is incubated for 2 h at 4° C. then centrifuged for 1 h at 4° C. at 100 000×g in order to separate the extracted fraction (supernatant, S) from that which is not extracted (pellet). The supernatants are deposited on 10% SDS-PAGE and stained with Coomassie blue after migration. The foscholine 12, DDM and LMNG originate from Anatrace, the SDS and Triton X100 originate from Sigma-Aldrich.

[3] = target: T2, AcrB (Escherichia coli, UniProt P31224); assay: Extraction of AcrB from membranes (SDS-PAGE of supernatant); parameters: species or system bacterial; same expression system (E. coli C41DE3); conditions: detergent 10 g/l unless indicated otherwise; 2 h at 4° C.
T2 construct: made in house; host or cells: E. coli C41(DE3)
Method: as §1, §2, §3

[4] = Critical micelle concentration (CMC) by DPH fluorescence; assay type: physicochemical; conditions: for CMC: 50 mM tris-HCl, pH 8.0
Method: FIG. 4 represents the fluorescence (%) of DPH (1,6-diphenyl-1,3,5-hexatriene) in the presence of increasing concentrations (0.0001 mM, 0.001 mM, 0.01 mM, 0.1 mM, 1 mM and 10 mM) of clips (compounds of the invention), exemplified with the compounds #3.7e (C13, points represented by squares) and 3.7f (C18, points represented by circles). The experiment is carried out in triplicates. In accordance with Chattopadhyay, A. & London, E ([22]), the CMC corresponds to the concentration at which the breakage in the slope is observed, here at 20 μM for 3.7f and 2 mM for 3.7e (black symbols).
Procedure. The molecules of the invention were prepared in a range of concentrations extending from 0.1 μM to 10 mM in 50 mM tris-HCl, pH 8.0 and neutralized at this pH. To 80 μl of each solution (triplicate), the same volume of 10 μM of 1,6-diphenyl-1,3,5-hexatriene (DPH, Sigma, D208000) is added, prepared at 100 μM in tetrahydrofuran then diluted 10-fold in H2O. The increase in the fluorescence of the DPH occurs when the latter find micelles of clips into which it can insert itself (Chattopadhyay, A. & London, E. Fluorimetric determination of critical micelle concentration avoiding interference from detergent charge. Anal Biochem 139, 408-412 (1984) ([22])). The fluorescence is read with a Xenius SAFAS fluorimeter by exciting at 358 nm and recording the fluorescence emission at 430 nm, with slits of 9 to 10 nm for the excitation and the emission and a gain of 100 to 150, depending on the cases.
Results. The CMC of the detergents is the concentration starting from which they associate with one another to form micelles, in which, in aqueous solution, the hydrophobic portions are grouped together at the center and the hydrophilic regions are exposed to the solvent. […] A typical result obtained with a compound 3.7 provided with a C13 (3.7e) or C18 ([…]) aliphatic chain is illustrated in FIG. 4.

[5] = Diameter of micelles by dynamic light scattering (DLS); assay type: physicochemical; conditions: estimated micelle diameter by DLS; 30 mM tris-HCl, pH 8.0
Method: FIG. 5 depicts the dynamic light scattering (DLS) of clips, in intensity (%, column A on the left) and in number (%, column B on the right), as a function of the […] (nm). The estimated diameters are indicated on each panel (column A). Columns A and B, from top to bottom: compound 3.7c (10 mM, 5×CMC), compound 3.7d (10 mM, 5×CMC), compound 3.7e (2 mM, […]), compound 3.7f (10 mM, 500×CMC), compound 3.7h (1 mM, 100×CMC), compound 3.7j (2 mM, 100×CMC), compound 3.9a (1 mM, 50×CMC).
Another physicochemical parameter of the micelles of detergents is their diameter, assuming that they are spherical. This dimension is obtained by the light scattering (DLS) technique.
Procedure. The molecules of the invention tested were prepared in a range of concentrations extending from 0.1 to 1000×CMC in 30 mM tris-HCl, pH 8.0 and neutralized at this pH. The solutions are filtered on 0.22 μm. The measurement is carried out on 100 μl, in triplicate on a Zetasizer Nano-S from Malvern Instruments.

T2 sequence (P31224 whole entry): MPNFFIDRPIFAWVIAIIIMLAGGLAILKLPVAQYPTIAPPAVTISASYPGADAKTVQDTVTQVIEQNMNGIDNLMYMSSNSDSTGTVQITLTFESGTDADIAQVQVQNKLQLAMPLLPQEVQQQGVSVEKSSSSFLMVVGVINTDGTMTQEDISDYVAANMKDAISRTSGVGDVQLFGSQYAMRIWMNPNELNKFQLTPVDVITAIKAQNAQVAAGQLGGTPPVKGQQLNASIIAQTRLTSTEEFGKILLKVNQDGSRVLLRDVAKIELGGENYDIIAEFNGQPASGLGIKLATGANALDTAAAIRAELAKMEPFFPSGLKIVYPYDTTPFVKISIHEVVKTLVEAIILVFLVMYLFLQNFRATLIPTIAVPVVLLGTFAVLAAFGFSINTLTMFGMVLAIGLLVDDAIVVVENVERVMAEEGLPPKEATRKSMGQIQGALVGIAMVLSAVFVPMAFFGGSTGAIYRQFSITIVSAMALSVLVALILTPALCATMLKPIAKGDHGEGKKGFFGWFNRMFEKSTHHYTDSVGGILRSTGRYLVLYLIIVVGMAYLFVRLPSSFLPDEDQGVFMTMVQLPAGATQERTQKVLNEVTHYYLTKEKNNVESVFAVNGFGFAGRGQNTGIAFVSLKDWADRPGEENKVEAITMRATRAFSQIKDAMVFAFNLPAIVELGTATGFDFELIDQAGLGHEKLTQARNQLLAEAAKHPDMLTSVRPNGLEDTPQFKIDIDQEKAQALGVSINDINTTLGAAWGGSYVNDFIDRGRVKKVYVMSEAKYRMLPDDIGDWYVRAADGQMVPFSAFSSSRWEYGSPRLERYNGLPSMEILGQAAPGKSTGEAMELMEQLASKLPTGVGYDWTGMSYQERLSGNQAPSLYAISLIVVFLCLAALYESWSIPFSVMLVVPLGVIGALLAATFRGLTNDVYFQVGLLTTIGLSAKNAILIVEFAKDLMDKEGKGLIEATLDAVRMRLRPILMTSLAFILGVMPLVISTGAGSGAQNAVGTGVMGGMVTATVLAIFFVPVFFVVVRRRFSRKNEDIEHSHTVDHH
T1 sequence (O06967 whole entry): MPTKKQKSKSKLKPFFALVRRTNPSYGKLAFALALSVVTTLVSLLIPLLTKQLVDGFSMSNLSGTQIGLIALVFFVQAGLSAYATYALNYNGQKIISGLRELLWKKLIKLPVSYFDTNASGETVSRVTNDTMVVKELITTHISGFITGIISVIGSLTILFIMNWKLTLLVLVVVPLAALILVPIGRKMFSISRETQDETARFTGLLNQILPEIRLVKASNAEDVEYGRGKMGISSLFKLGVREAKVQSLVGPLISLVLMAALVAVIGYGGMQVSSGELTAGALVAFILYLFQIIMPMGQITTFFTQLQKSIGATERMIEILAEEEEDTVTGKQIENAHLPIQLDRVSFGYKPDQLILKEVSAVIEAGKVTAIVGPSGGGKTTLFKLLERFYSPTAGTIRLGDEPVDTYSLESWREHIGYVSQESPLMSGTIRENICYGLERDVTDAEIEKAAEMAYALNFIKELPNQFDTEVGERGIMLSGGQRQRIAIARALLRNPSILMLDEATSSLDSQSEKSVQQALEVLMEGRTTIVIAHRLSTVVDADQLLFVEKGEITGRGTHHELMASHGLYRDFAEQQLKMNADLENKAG

Row | Compound | ATPase activity of BmrA ([1]; relative to protein without compound, at concentrations that solubilize/extract BmrA (LMNG 10 mM; DDM beyond 5 mM), 2 h at 4° C.) [%] | impact on the activity of BmrA ([1]; up to 1 mM) | extraction of BmrA [2] | extraction of AcrB [3] | CMC [4] [mM] | CMC (breakage in the slope of DPH fluorescence, FIG. 4) ([4]; triplicates) [µM] | Ø, nm [5] [nm]
1 | CCCCCCCCCCC(CCCCCCCCCC)(CO[C@@H]1O[C@H](CO)[C@@H](O[C@H]2O[C@H](CO)[C@@H](O)[C@H](O)[C@H]2O)[C@H](O)[C@H]1O)CO[C@@H]1O[C@H](CO)[C@@H](O[C@H]2O[C@H](CO)[C@@H](O)[C@H](O)[C@H]2O)[C@H](O)[C@H]1O [LMNG, lauryl maltose neopentyl glycol, reference compound] | 25 | relatively low impact |  |  |  |  | 
2 | CCCCCCCCCCCCCCCCCCC(=O)N[C@@H](COCc1cn(CCO[C@@H]2OC(CO)[C@@H](O[C@H]3OC(CO)[C@@H](O)C(O)C3O)C(O)C2O)nn1)C(=O)N[C@H](CCC(=O)O)C(=O)O (stereo partly shown) [Compound 3.7f] |  |  | extracting | extracting | 0.02 | 20 | 4.0
3 | CCCCCCCCCCCC(=O)NC(CC(=O)O)C(=O)NC(CCC(=O)O)C(=O)O (stereo not drawn) [Compound 4.5b] (Lauroyl-Asp-Glu-OH; configuration not given here) |  |  | partially extracting | extracting | 2 |  | 
4 | CCCCCC(CCCCC)C(=O)N[C@@H](COCc1cn(CCO[C@@H]2OC(CO)[C@@H](O)C(O)C2O)nn1)C(=O)N[C@H](CCC(=O)O)C(=O)O (stereo partly shown) [Compound 3.7i] |  |  | non-extracting | do not extract | 1 |  | 
